Experimental findings from ChEMBL document CHEMBL4177722, “Small molecule inhibitors of anthrax edema factor” (Bioorg Med Chem Lett, 2018) are described below.

The target in series [1] is Casein kinase I isoform alpha (Homo sapiens) (UniProt P48729). Briefly: Inhibition of human CK1a1 at 10 uM by ADP-Glo kinase assay. On the technique in general: ADP-Glo first removes unused ATP, then detects ADP through luciferase.
Series [2] deals with Misshapen-like kinase 1 (Homo sapiens) (UniProt Q8N4C8). Briefly: Inhibition of human MINK at 10 uM by ADP-Glo kinase assay.
For series [3], the target named is T1, Inhibitor of nuclear factor kappa-B kinase subunit beta (Homo sapiens) (UniProt O14920).
T1 sequence (whole entry): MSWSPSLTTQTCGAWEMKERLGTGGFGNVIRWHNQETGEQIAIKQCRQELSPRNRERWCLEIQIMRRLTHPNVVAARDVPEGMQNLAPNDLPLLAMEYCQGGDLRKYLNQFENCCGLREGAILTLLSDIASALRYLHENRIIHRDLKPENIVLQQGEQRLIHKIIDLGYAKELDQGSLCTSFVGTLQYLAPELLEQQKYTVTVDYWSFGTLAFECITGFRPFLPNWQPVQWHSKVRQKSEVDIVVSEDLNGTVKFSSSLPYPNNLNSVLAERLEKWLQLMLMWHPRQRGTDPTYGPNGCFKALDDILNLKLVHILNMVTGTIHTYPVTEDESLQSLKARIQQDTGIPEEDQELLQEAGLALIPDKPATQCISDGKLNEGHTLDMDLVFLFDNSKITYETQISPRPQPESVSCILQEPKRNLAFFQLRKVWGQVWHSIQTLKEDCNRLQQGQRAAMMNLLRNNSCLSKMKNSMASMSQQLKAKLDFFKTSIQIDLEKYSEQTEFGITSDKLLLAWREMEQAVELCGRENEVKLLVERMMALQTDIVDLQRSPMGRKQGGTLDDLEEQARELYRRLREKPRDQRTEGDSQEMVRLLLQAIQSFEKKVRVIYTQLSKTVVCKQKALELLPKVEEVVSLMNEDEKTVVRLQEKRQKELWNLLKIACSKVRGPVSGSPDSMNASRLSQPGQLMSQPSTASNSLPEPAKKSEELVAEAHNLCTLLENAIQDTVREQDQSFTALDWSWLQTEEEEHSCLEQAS
Briefly: Inhibition of human IKKbeta at 10 uM by ADP-Glo kinase assay.

Series [4] concerns the target RAC-alpha serine/threonine-protein kinase (Homo sapiens) (UniProt P31749). In words: Inhibition of human AKT1 at 10 uM by ADP-Glo kinase assay.
The target of series [5] is Casein kinase I isoform gamma-1 (Homo sapiens) (UniProt Q9HCP0). In words: Inhibition of human CK1g1 at 10 uM by ADP-Glo kinase assay.
For series [6], the target named is Casein kinase II subunit alpha (Homo sapiens) (UniProt P68400). Briefly: Inhibition of human CK2a1 at 10 uM by ADP-Glo kinase assay.
Series [7] deals with Mitogen-activated protein kinase 14 (Homo sapiens) (UniProt Q16539). Briefly: Inhibition of human p38alpha at 10 uM by ADP-Glo kinase assay.
A short description of series [8]: (§1) Cytotoxicity against mouse RAW264.7 cells assessed a reduction in cell viability incubated for 24 hrs in presence of 10% FBS by MTT assay. In kind it is cell-based. Conditions: RAW264.7 cells. A general note: Formazan colour is commonly taken as a measure of viable cells.
Series [9] has as its system RAW264.7. In words: Cytotoxicity against mouse RAW264.7 cells assessed a reduction in cell viability incubated for 24 hrs in absence of 10% FBS by MTT assay. In kind it is cell-based. Conditions: raw264.7, 24 h.
The target of series [10] is T2, Calmodulin-sensitive adenylate cyclase (Bacillus anthracis) (UniProt P40136).
T2 sequence (whole entry): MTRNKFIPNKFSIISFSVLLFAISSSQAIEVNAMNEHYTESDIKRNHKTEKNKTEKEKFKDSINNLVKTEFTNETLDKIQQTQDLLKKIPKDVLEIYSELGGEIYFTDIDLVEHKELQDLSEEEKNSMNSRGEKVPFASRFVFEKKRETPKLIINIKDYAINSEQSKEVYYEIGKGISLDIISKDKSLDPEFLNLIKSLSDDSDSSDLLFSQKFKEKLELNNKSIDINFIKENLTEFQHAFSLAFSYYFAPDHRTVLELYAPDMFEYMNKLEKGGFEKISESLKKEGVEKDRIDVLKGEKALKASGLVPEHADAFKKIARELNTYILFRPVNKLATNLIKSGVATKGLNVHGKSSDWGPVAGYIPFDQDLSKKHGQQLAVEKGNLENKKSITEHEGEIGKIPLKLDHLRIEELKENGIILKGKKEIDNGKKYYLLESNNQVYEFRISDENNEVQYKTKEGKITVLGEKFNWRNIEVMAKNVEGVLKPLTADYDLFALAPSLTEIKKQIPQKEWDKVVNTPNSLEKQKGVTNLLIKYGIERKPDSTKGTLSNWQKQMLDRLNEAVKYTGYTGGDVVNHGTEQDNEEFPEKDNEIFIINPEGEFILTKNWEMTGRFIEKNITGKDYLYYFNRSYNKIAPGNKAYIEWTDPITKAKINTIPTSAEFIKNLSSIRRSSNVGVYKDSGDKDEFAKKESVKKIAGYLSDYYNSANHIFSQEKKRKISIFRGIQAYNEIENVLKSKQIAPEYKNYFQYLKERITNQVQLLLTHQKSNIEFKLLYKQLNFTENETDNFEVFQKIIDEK
In words: Inactivation of Bacillus anthracis edema factor assessed as inactivation rate constant in presence of CaM incubated for 10 to 240 mins by EnzChek pyrophosphate assay.

The target of series [11] is T2, Calmodulin-sensitive adenylate cyclase (Bacillus anthracis). In words: Irreversible inactivation of Bacillus anthracis edema factor pre-incubated for 90 mins followed by drug filtration by EnzChek pyrophosphate assay.
For series [12] the target is unchanged. Briefly: Inactivation of Bacillus anthracis edema factor assessed as Kinact/Ki ratio in presence of CaM incubated for 10 to 240 mins by EnzChek pyrophosphate assay.
Series [13] addresses T3, Calmodulin-sensitive adenylate cyclase (Bacillus anthracis, UniProt P40136).
T3 sequence (P40136 whole entry): T2 sequence (whole entry)
In words: Inactivation of Bacillus anthracis edema factor in presence of CaM incubated for 10 to 240 mins by EnzChek pyrophosphate assay.

Series [14] concerns RAW264.7. Described as §1. Conditions: raw264.7, 24 h. Type of series: cell-based.
The target of series [15] is T2, Calmodulin-sensitive adenylate cyclase (Bacillus anthracis). Briefly: Inactivation of Bacillus anthracis edema factor assessed as Kinact/Ki ratio in presence of CaM incubated for 10 to 240 mins by EnzChek pyrophosphate assay relative to FSBA.

Chain of Casein kinase II subunit alpha (Homo sapiens) (P68400 whole entry, looked up): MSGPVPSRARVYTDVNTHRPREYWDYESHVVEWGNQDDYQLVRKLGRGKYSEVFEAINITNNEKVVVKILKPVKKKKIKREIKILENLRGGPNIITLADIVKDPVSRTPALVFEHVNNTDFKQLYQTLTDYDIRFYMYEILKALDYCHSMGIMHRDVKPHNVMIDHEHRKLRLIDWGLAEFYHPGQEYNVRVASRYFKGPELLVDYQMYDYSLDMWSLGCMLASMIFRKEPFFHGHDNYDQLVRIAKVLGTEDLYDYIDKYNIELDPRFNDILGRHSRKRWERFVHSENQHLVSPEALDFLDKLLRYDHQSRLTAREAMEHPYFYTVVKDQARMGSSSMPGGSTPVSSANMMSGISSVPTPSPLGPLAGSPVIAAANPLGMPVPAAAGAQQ
Chain of RAC-alpha serine/threonine-protein kinase (Homo sapiens) (P31749 whole entry, canonical isoform): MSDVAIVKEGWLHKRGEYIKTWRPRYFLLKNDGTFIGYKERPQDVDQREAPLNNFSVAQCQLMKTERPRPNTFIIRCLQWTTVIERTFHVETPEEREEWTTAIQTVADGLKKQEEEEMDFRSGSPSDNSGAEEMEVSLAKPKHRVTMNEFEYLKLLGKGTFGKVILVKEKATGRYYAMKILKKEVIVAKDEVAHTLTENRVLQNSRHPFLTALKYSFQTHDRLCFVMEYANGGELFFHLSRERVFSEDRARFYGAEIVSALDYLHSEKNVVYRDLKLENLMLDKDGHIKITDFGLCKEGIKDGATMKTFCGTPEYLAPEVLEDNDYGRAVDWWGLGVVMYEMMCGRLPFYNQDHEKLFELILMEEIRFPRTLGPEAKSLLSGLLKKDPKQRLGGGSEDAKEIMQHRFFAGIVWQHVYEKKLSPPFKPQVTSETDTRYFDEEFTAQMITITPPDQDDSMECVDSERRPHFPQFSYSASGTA
Chain of Mitogen-activated protein kinase 14 (Homo sapiens) (Q16539 whole entry): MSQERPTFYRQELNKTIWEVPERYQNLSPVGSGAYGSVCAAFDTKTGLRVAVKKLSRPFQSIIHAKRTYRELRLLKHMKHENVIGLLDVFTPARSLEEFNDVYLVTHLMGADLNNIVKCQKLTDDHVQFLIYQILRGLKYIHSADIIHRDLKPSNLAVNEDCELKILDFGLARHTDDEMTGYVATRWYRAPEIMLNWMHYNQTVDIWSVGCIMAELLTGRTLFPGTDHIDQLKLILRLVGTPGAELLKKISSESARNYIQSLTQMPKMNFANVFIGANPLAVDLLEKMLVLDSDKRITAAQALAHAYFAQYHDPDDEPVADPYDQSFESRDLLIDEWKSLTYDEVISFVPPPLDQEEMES
Chain of Casein kinase I isoform alpha (Homo sapiens) (P48729 2-337 limits assumed): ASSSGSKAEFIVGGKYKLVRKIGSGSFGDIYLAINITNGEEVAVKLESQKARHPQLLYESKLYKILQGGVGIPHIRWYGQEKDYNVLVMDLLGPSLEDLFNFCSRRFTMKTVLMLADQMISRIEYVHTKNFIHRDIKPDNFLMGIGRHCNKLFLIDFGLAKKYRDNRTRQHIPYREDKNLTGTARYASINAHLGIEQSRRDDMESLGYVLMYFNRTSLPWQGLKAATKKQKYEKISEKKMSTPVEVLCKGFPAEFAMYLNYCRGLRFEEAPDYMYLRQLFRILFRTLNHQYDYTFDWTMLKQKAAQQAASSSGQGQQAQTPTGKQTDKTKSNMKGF
Chain of Casein kinase I isoform gamma-1 (Homo sapiens) (Q9HCP0 whole entry, looked up, canonical isoform): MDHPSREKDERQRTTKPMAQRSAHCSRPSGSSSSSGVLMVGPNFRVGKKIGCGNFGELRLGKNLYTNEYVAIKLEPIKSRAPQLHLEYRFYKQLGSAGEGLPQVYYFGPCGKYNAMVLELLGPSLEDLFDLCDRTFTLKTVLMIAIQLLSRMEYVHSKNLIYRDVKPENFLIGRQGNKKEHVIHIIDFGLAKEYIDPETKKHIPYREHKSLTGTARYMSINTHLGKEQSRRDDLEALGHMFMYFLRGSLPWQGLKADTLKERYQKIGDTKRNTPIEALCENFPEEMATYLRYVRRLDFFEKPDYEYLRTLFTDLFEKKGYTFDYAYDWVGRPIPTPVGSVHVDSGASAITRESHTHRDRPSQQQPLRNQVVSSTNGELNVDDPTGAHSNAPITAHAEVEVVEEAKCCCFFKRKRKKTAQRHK
Chain of Misshapen-like kinase 1 (Homo sapiens) (Q8N4C8 whole entry, looked up): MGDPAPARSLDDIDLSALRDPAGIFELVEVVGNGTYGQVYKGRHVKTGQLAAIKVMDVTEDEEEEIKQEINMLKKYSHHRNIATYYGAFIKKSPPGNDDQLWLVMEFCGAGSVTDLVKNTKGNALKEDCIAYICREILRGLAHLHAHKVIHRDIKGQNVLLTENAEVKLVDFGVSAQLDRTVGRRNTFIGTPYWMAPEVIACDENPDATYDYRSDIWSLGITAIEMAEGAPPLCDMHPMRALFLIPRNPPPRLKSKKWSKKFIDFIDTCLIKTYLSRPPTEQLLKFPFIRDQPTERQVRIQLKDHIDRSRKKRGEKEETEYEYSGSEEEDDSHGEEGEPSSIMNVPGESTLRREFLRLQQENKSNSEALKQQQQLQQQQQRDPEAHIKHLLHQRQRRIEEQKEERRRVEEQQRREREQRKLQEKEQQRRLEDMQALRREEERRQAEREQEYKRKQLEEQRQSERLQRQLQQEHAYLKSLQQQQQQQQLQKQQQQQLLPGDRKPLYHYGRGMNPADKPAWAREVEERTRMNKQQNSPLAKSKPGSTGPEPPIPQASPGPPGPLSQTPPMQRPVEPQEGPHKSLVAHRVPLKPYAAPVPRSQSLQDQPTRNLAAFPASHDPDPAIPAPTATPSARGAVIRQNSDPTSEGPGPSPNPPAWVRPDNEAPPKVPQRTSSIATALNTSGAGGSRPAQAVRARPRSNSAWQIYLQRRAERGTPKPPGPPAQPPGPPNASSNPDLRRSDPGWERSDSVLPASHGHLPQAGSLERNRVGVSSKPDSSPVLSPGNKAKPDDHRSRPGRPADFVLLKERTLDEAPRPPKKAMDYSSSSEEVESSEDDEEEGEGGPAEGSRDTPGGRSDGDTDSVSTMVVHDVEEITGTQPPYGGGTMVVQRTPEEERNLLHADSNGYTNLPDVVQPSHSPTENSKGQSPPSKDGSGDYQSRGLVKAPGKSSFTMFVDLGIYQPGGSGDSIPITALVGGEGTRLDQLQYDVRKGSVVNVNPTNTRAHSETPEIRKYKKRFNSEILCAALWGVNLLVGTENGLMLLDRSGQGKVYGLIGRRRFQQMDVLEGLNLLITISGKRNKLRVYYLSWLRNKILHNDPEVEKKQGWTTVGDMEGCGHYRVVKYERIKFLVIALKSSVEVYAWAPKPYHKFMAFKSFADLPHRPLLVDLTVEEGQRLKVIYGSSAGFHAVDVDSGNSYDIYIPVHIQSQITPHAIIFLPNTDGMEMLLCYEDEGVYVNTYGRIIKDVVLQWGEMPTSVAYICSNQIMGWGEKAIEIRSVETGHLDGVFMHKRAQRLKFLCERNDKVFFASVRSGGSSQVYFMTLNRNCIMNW

With `CN[C@@H]1C[C@H]2O[C@@](C)([C@@H]1OC)n1c3ccccc3c3c4c(c5c6ccccc6n2c5c31)C(=O)NC4`, the inhibition (commonly the share of the control response that was lost under treatment) in series [1] stood at 51%; in series [2], 98%; in series [3], 64%; in series [4], 61%; in series [5], 38%; in series [6], 64%. Also, the inhibition in series [7] amounted to 11%.
Consider `Nc1ncnc2c1ncn2[C@@H]1O[C@H](COC(=O)c2ccc(S(=O)(=O)F)cc2)[C@@H](O)[C@H]1O`, for which, in [8], the CC50 (usually the concentration at which the toxic effect on the cells reaches its halfway point) at 24 h is over 100 µM. Moreover, the Activity entry with RAW264.7 [9] is recorded as “Non-Toxic”. In addition, the Kinact in [10] came out at 0.015 min⁻¹. For the same compound, the inhibition entry in series [11] is “Dose-dependent effect”. Further, in series [12], the Ratio came to 13.4. Besides, the Ki in [13] turned out to be 18.4 µM.
For `Nc1cc(OCc2ccc(S(=O)(=O)F)cc2)ccn1`, in the series on RAW264.7 [14], the CC50 was determined as 86 µM. For the same compound, the Activity entry in the series with RAW264.7 [9] is “Non-Toxic”. In addition, in series [10], the Kinact turned out to be 0.198 min⁻¹. Besides, the values for the Ratio in series [12] and in series [15] were 3.5 and 0.3, respectively. Also, the Ki in series [13] stood at 955 µM.
